For one molecule, IC50 results are on record in patent EP0774461A1, “Excitatory amino acid derivatives” (ELI LILLY AND COMPANY, priority 1995, dated 1997).

The test system of the experiment is metabotropic glutamate receptors. In words: displacement of 1S,3R-ACPD-sensitive [3H]glutamate binding to rat brain cell membranes. Conditions: selective displacement of 1S,3R-ACPD-sensitive [3H]glutamate binding; crude membranes of rat forebrain. As for the experimental part: The binding of [^3H]glutamate was conducted with crude membranes of rat forebrain as described by Schoepp and True. Schoepp and True, Neuroscience Lett., 145, 100-104 (1992) and Wright et al., J. Neurochemistry 63: 938-945 (1994).

Usually IC50 stands for the midpoint of a concentration-inhibition curve. In turn, `N[C@]1(C(=O)O)CO[C@@H]2[C@@H](C(=O)O)[C@@H]21` (racemic) [Example 1, 1SR,4SR,5RS,6SR-4-Amino-2-Oxabicyclo[3.1.0]hexane-4,6-dicarboxylic Acid] gave an IC50 of 55 nM. That is a double-digit nanomolar value.
